Measurements reported in paper PMC5609601 (Brazilian Journal of Medical and Biological Research, 2017).
Entries after “also recorded” stand apart in the source; their conditions may differ. Where two headings read alike, the source gives them in different places.

Assays:
[1] = Adsorption of the constituents by the intestinal wall; assay type: in vitro ADME, rat; conditions: for Absorption in the intestinal wall: curcumin SEDDS; for Concentration in incubation solution with intestinal wall: 37.5±0.5°C
rat small intestines [2] = assay: In situ single pass intestinal perfusion: absorption site and drug concentration; assay type: in vivo; conditions: for Comparison of absorption among intestinal segments / Concentration dependence of absorption: duodenum; for Comparison of absorption among intestinal segments: jejunum, ileum, colon; for Comparison of absorption among intestinal segments / Main intestinal absorption site: higher concentration group; for Concentration dependence of absorption: low, medium, high, higher concentrations; for Main intestinal absorption site: different intestinal segments; for Transport (absorption) mechanism: rat small intestine
P-gp = assay type: in vivo, rat; conditions: for Influence of verapamil hydrochloride on absorption / Influence of verapamil hydrochloride on Ka / Influence of verapamil hydrochloride on Papp / Influence of verapamil hydrochloride on A%: ileum; for Influence of verapamil hydrochloride on Ka / Influence of verapamil hydrochloride on Papp: high-concentration inhibitor; for Substrate of P-glycoprotein: inferred from verapamil hydrochloride effect
[3] = Stability of curcumin constituents; assay type: physicochemical, rat; conditions: for Concentration in blank intestinal perfusion fluid: 37.5±0.5°C, drug-containing SEDDS; for Stability in pH 6.8 K-R blank intestinal perfusion fluid: within 8 h, curcumin SEDDS
MRP2 = MRP2 (Rattus norvegicus, UniProt Q63120); assay type: in vivo; conditions: for Substrate of MRP2: inferred from probenecid effect
rat small intestines [4] = assay type: in vivo; conditions: duodenum; for Influence of 2,4-dinitrophenol on Ka / Influence of 2,4-dinitrophenol on Papp / Influence of 2,4-dinitrophenol on A%: compared with the group without inhibitor; for Influence of 2,4-dinitrophenol on A%: 1.0, 2.0, 5.0 mmol/L
[5] = jejunum, high-concentration probenecid
[6] = jejunum, probenecid 0.02, 0.04, 0.08 mmol/L

MRP2, sequence (Q63120 whole entry): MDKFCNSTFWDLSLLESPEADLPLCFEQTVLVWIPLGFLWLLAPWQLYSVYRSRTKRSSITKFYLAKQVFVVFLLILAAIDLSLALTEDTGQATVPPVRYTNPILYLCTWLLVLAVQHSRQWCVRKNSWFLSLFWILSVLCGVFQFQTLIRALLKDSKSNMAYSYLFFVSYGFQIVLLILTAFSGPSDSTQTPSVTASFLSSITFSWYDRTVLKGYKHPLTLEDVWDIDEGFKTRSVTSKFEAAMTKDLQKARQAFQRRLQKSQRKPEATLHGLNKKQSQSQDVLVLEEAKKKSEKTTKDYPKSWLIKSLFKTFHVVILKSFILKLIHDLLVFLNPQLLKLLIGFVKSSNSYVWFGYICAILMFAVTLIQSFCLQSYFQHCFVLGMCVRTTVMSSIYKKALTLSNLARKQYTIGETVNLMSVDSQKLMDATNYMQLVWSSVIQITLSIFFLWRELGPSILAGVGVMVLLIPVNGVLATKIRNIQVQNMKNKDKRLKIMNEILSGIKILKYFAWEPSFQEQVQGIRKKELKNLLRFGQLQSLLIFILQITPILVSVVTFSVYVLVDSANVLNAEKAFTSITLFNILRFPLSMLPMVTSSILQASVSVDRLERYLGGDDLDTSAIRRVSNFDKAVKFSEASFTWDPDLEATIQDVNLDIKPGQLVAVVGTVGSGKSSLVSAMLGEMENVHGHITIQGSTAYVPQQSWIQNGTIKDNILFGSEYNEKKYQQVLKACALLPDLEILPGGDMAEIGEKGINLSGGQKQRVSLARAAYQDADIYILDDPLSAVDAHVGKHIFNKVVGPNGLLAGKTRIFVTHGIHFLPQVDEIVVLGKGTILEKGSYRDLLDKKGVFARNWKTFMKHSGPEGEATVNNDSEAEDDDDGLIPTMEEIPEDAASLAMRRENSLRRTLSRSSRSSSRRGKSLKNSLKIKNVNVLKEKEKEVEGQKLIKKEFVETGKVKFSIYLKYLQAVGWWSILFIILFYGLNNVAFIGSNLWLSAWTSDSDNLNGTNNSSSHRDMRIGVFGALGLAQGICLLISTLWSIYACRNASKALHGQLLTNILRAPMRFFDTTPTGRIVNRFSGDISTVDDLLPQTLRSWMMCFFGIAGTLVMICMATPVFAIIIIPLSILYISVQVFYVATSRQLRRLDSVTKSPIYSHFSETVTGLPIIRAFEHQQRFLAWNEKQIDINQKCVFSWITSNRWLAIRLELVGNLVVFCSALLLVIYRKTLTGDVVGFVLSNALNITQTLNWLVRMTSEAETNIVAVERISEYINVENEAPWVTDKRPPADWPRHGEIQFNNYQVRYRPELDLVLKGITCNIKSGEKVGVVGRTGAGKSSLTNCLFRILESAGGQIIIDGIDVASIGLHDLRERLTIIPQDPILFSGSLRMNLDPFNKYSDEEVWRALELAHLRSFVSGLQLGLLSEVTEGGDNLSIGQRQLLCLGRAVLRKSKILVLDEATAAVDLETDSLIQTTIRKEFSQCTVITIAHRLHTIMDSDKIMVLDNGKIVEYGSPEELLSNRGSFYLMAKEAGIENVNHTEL

| SMILES | Absorption in the intestinal wall [1] | Concentration in incubation solution with intestinal wall ([1]; time 0 min) | Concentration in incubation solution with intestinal wall ([1]; time 30 min) | Concentration in incubation solution with intestinal wall ([1]; time 60 min) | Concentration in incubation solution with intestinal wall ([1]; time 90 min) | Concentration in incubation solution with intestinal wall ([1]; time 120 min) | Comparison of absorption among intestinal segments (rat small intestines [2]) | Concentration dependence of absorption (rat small intestines [2]) | Main intestinal absorption site (rat small intestines [2]) | Absorption in duodenum compared to colon (rat small intestines [2]; one-way ANOVA) | Transport (absorption) mechanism (rat small intestines [2]) | Influence of verapamil hydrochloride on absorption (P-gp) | Influence of verapamil hydrochloride on Papp (P-gp) | Concentration in blank intestinal perfusion fluid ([3]; time 0 h) | Concentration in blank intestinal perfusion fluid ([3]; time 1 h) | Concentration in blank intestinal perfusion fluid ([3]; time 2 h) | Concentration in blank intestinal perfusion fluid ([3]; time 4 h) | Concentration in blank intestinal perfusion fluid ([3]; time 8 h) | Stability in pH 6.8 K-R blank intestinal perfusion fluid [3] | Influence of probenecid on Papp (MRP2; [5]) | other results |
| --- | --- | --- | --- | --- | --- | --- | --- | --- | --- | --- | --- | --- | --- | --- | --- | --- | --- | --- | --- | --- | --- |
| O=C(/C=C/c1ccc(O)cc1)CC(=O)/C=C/c1ccc(O)cc1 [BDMCur, bisdemethoxycurcumin] | no obvious absorption | 27.300 µg/mL | 27.288 µg/mL | 27.247 µg/mL | 27.173 µg/mL | 26.253 µg/mL | not significantly different (P>0.05); also recorded: better in the duodenum and relatively poorer in the ileum | concentration inhibiting effect | duodenum | increased (P<0.01) in an extremely significant manner | active transport in the carrier-mediated transport | significantly improve the absorption | significantly accelerated | 26 µg/mL | 26 µg/mL | 26 µg/mL | 26 µg/mL | 25 µg/mL | stable | significantly increased | Influence of verapamil hydrochloride on Ka (P-gp): significantly accelerated; Influence of verapamil hydrochloride on A% (P-gp; verapamil hydrochloride 0.05, 0.1, 0.5 mmol/L): almost no influence; Substrate of P-glycoprotein (P-gp): may be the substrates; Substrate of MRP2 (MRP2): may be the substrates; Change of A% when probenecid concentration was further increased (MRP2; jejunum, above medium concentration): barely changed; Influence of probenecid on Ka (MRP2; [5]): significantly increased; Influence of probenecid on A% (MRP2; jejunum, medium-concentration probenecid): significantly increased; Influence of probenecid on A% (MRP2; [6]): significantly increased; Energy dependence of intestinal absorption process (rat small intestines [4]): energy-dependent action; Influence of 2,4-dinitrophenol on Ka (rat small intestines [4]): decreased significantly (P<0.05); Influence of 2,4-dinitrophenol on Papp (rat small intestines [4]): decreased significantly (P<0.05); Influence of 2,4-dinitrophenol on A% (rat small intestines [4]): decreased in an extremely significant manner (P<0.01) |
| COc1cc(/C=C/C(=O)CC(=O)/C=C/c2ccc(O)c(OC)c2)ccc1O [Cur, curcumin] |  | 719.250 µg/mL | 717.346 µg/mL | 716.858 µg/mL | 716.019 µg/mL | 701.751 µg/mL |  | concentration inhibiting effect |  |  |  |  | significantly accelerated | 685 µg/mL | 684 µg/mL | 682 µg/mL | 678 µg/mL | 668 µg/mL | stable | significantly increased | Change of A% with probenecid concentration (MRP2; jejunum): increased with the increase in probenecid concentration; Change of Ka with probenecid concentration (MRP2; jejunum): increased with the increase in probenecid concentration |
| COc1cc(/C=C/C(O)=C/C(=O)/C=C/c2ccc(O)cc2)ccc1O [DMCur, demethoxycurcumin] | no obvious absorption | 166.950 µg/mL | 165.354 µg/mL | 164.023 µg/mL | 163.724 µg/mL | 162.104 µg/mL | duodenum > colon ≈ jejunum > ileum; also recorded: better in the duodenum and relatively poorer in the ileum | saturation phenomenon | duodenum | increased significantly (P<0.05) | active transport in the carrier-mediated transport | significantly improve the absorption | significantly accelerated | 159 µg/mL | 158 µg/mL | 157 µg/mL | 156 µg/mL | 154 µg/mL | stable | significantly increased | Absorption in duodenum compared with ileum (rat small intestines [2]; one-way ANOVA): increased (P<0.01) in an extremely significant manner; Absorption in jejunum compared with ileum (rat small intestines [2]; one-way ANOVA): increased significantly (P<0.05); Influence of verapamil hydrochloride on Ka (P-gp): significantly accelerated; Influence of verapamil hydrochloride on A% (P-gp; medium-concentration and high-concentration inhibitor): significant increase; Substrate of P-glycoprotein (P-gp): may be the substrates; Substrate of MRP2 (MRP2): may be the substrates; Change of A% with probenecid concentration (MRP2; jejunum): increased with the increase in probenecid concentration; Change of Ka with probenecid concentration (MRP2; jejunum): increased with the increase in probenecid concentration; Influence of probenecid on A% (MRP2; [6]): significantly increased; Energy dependence of intestinal absorption process (rat small intestines [4]): energy-dependent action; Influence of 2,4-dinitrophenol on Ka (rat small intestines [4]): decreased significantly (P<0.05); Influence of 2,4-dinitrophenol on Papp (rat small intestines [4]): decreased significantly (P<0.05); Influence of 2,4-dinitrophenol on A% (rat small intestines [4]): decreased in an extremely significant manner (P<0.01) |
